Laboratory results reported in ChEMBL document CHEMBL5724914, “Linking interpersonal differences in gut microbiota composition and drug biotransformation activity” (2024).

Conditions: human gut metagenome, 24 h, 2 µM
Further: call rule not given here.

Row | Structure (SMILES) | Bacterial Biotransformation
1 | CN/C(=N/CCSCc1nc[nH]c1C)NC#N [CIMETIDINE] | Compound metabolized
2 | COc1cc2nc(N3CCN(C(=O)c4ccco4)CC3)nc(N)c2cc1OC [PRAZOSIN] | Compound NOT metabolized

Experiment: (§1) The drug is tested on Z-019 corresponding to rat gut metagenome with ENA study accession number: PRJEB37062 and ENA sample accession number: ERS12561818 for biotransformation under anaerobic condition. The drug concentrations were measured over 9 timepoints collected between 0 and 24 hours of incubation by liquid-chromatography-coupled mass spectrometry (LC–MS)
Conditions: 2 µM

Row | Structure (SMILES) | Bacterial Biotransformation
3 | CN/C(=N/CCSCc1nc[nH]c1C)NC#N [CIMETIDINE] | Compound NOT metabolized
4 | COc1cc2nc(N3CCN(C(=O)c4ccco4)CC3)nc(N)c2cc1OC [PRAZOSIN] | Compound NOT metabolized

Conditions: human gut metagenome, 24 h, 2 µM
Remark: another data set of the same source

Row | Structure (SMILES) | Bacterial Biotransformation
5 | CN/C(=N/CCSCc1nc[nH]c1C)NC#N [CIMETIDINE] | Compound metabolized

Experiment: as §1, with “on WLS-086” for “on Z-019”, “to human” for “to rat”, “number: ERS12561752” for “number: ERS12561818”
Conditions: 2 µM

Row | Structure (SMILES) | Bacterial Biotransformation
6 | CN/C(=N/CCSCc1nc[nH]c1C)NC#N [CIMETIDINE] | Compound metabolized
7 | COc1cc2nc(N3CCN(C(=O)c4ccco4)CC3)nc(N)c2cc1OC [PRAZOSIN] | Compound metabolized

Conditions: human gut metagenome, 24 h, 2 µM
Remark: another data set of the same source

Row | Structure (SMILES) | Bacterial Biotransformation
8 | CN/C(=N/CCSCc1nc[nH]c1C)NC#N [CIMETIDINE] | Compound NOT metabolized
9 | COc1cc2nc(N3CCN(C(=O)c4ccco4)CC3)nc(N)c2cc1OC [PRAZOSIN] | Compound NOT metabolized

Experiment: as §1, with “on WLS-310” for “on Z-019”, “to human” for “to rat”, “number: ERS12561785” for “number: ERS12561818”
Conditions: 2 µM

Row | Structure (SMILES) | Bacterial Biotransformation
10 | CN/C(=N/CCSCc1nc[nH]c1C)NC#N [CIMETIDINE] | Compound metabolized
11 | COc1cc2nc(N3CCN(C(=O)c4ccco4)CC3)nc(N)c2cc1OC [PRAZOSIN] | Compound metabolized

Conditions: human gut metagenome, 24 h, 2 µM
Remark: another data set of the same source

Row | Structure (SMILES) | Bacterial Biotransformation
12 | CN/C(=N/CCSCc1nc[nH]c1C)NC#N [CIMETIDINE] | Compound NOT metabolized
13 | COc1cc2nc(N3CCN(C(=O)c4ccco4)CC3)nc(N)c2cc1OC [PRAZOSIN] | Compound NOT metabolized

Conditions: human gut metagenome, 24 h, 2 µM
Remark: another data set of the same source

Row | Structure (SMILES) | Bacterial Biotransformation
14 | CN/C(=N/CCSCc1nc[nH]c1C)NC#N [CIMETIDINE] | Compound metabolized
15 | COc1cc2nc(N3CCN(C(=O)c4ccco4)CC3)nc(N)c2cc1OC [PRAZOSIN] | Compound metabolized

Conditions: human gut metagenome, 24 h, 2 µM
Remark: another data set of the same source

Row | Structure (SMILES) | Bacterial Biotransformation
16 | CN/C(=N/CCSCc1nc[nH]c1C)NC#N [CIMETIDINE] | Compound NOT metabolized
17 | COc1cc2nc(N3CCN(C(=O)c4ccco4)CC3)nc(N)c2cc1OC [PRAZOSIN] | Compound NOT metabolized

Experiment: as §1, with “Z-014” for “Z-019”, “ERS12561814” for “ERS12561818”
Conditions: 2 µM

Row | Structure (SMILES) | Bacterial Biotransformation
18 | CN/C(=N/CCSCc1nc[nH]c1C)NC#N [CIMETIDINE] | Compound NOT metabolized
19 | COc1cc2nc(N3CCN(C(=O)c4ccco4)CC3)nc(N)c2cc1OC [PRAZOSIN] | Compound NOT metabolized

Conditions: human gut metagenome, 24 h, 2 µM
Remark: another data set of the same source

Row | Structure (SMILES) | Bacterial Biotransformation
20 | CN/C(=N/CCSCc1nc[nH]c1C)NC#N [CIMETIDINE] | Compound NOT metabolized
21 | COc1cc2nc(N3CCN(C(=O)c4ccco4)CC3)nc(N)c2cc1OC [PRAZOSIN] | Compound NOT metabolized

Experiment: as §1, with “on Z-016” for “on Z-019”, “to mouse” for “to rat”, “number: ERS12561815” for “number: ERS12561818”
Conditions: 2 µM

Row | Structure (SMILES) | Bacterial Biotransformation
22 | CN/C(=N/CCSCc1nc[nH]c1C)NC#N [CIMETIDINE] | Compound NOT metabolized
23 | COc1cc2nc(N3CCN(C(=O)c4ccco4)CC3)nc(N)c2cc1OC [PRAZOSIN] | Compound NOT metabolized

Experiment: as §1, with “on Z-017” for “on Z-019”, “to mouse” for “to rat”, “number: ERS12561816” for “number: ERS12561818”
Conditions: 2 µM

Row | Structure (SMILES) | Bacterial Biotransformation
24 | CN/C(=N/CCSCc1nc[nH]c1C)NC#N [CIMETIDINE] | Compound NOT metabolized
25 | COc1cc2nc(N3CCN(C(=O)c4ccco4)CC3)nc(N)c2cc1OC [PRAZOSIN] | Compound NOT metabolized

Experiment: as §1, with “on WLS-220” for “on Z-019”, “to human” for “to rat”, “number: ERS12561769” for “number: ERS12561818”
Conditions: 2 µM

Row | Structure (SMILES) | Bacterial Biotransformation
26 | CN/C(=N/CCSCc1nc[nH]c1C)NC#N [CIMETIDINE] | Compound metabolized
27 | COc1cc2nc(N3CCN(C(=O)c4ccco4)CC3)nc(N)c2cc1OC [PRAZOSIN] | Compound metabolized

Experiment: as §1, with “on Z-013” for “on Z-019”, “to rabbit” for “to rat”, “number: ERS12561813” for “number: ERS12561818”
Conditions: 2 µM

Row | Structure (SMILES) | Bacterial Biotransformation
28 | CN/C(=N/CCSCc1nc[nH]c1C)NC#N [CIMETIDINE] | Compound NOT metabolized
29 | COc1cc2nc(N3CCN(C(=O)c4ccco4)CC3)nc(N)c2cc1OC [PRAZOSIN] | Compound NOT metabolized

Experiment: as §1, with “on WLS-073” for “on Z-019”, “to human” for “to rat”, “number: ERS12561749” for “number: ERS12561818”
Conditions: 2 µM

Row | Structure (SMILES) | Bacterial Biotransformation
30 | CN/C(=N/CCSCc1nc[nH]c1C)NC#N [CIMETIDINE] | Compound NOT metabolized
31 | COc1cc2nc(N3CCN(C(=O)c4ccco4)CC3)nc(N)c2cc1OC [PRAZOSIN] | Compound metabolized

Conditions: human gut metagenome, 24 h, 2 µM
Remark: another data set of the same source

Row | Structure (SMILES) | Bacterial Biotransformation
32 | CN/C(=N/CCSCc1nc[nH]c1C)NC#N [CIMETIDINE] | Compound metabolized
33 | COc1cc2nc(N3CCN(C(=O)c4ccco4)CC3)nc(N)c2cc1OC [PRAZOSIN] | Compound NOT metabolized

Experiment: as §1, with “on WLS-007” for “on Z-019”, “to human” for “to rat”, “number: ERS12561742” for “number: ERS12561818”
Conditions: 2 µM

Row | Structure (SMILES) | Bacterial Biotransformation
34 | CN/C(=N/CCSCc1nc[nH]c1C)NC#N [CIMETIDINE] | Compound NOT metabolized
35 | COc1cc2nc(N3CCN(C(=O)c4ccco4)CC3)nc(N)c2cc1OC [PRAZOSIN] | Compound NOT metabolized

Experiment: as §1, with “on WLS-038” for “on Z-019”, “to human” for “to rat”, “number: ERS12561745” for “number: ERS12561818”
Conditions: 2 µM

Row | Structure (SMILES) | Bacterial Biotransformation
36 | CN/C(=N/CCSCc1nc[nH]c1C)NC#N [CIMETIDINE] | Compound NOT metabolized
37 | COc1cc2nc(N3CCN(C(=O)c4ccco4)CC3)nc(N)c2cc1OC [PRAZOSIN] | Compound NOT metabolized

Experiment: as §1, with “Z-008” for “Z-019”, “to” for “to rat gut”, “ERS12561808” for “ERS12561818”
Conditions: 2 µM

Row | Structure (SMILES) | Bacterial Biotransformation
38 | CN/C(=N/CCSCc1nc[nH]c1C)NC#N [CIMETIDINE] | Compound NOT metabolized
39 | COc1cc2nc(N3CCN(C(=O)c4ccco4)CC3)nc(N)c2cc1OC [PRAZOSIN] | Compound NOT metabolized
